In brackets after ≈: the same amount, converted by molar mass.
Columns and labels:
Artemia = test: Toxicity in brine shrimp; type: organism-based; conditions: in vivo
SK-MEL-2 = test: Cytotoxicity against human SK-MEL-2 cells; type: functional; conditions: read-out: ED50 (the source's name)
HCT-15 = test: Cytotoxicity against human HCT15 cells; type: functional; conditions: read-out: ED50 (the source's name)
SK-OV-3 = test: Cytotoxicity against human SKOV3 cells; type: functional; conditions: read-out: ED50 (the source's name)
A549 = test: Cytotoxicity against human A549 cells; type: functional; conditions: read-out: ED50 (the source's name)

Compound `CC1=CC[C@H](C(C)C)[C@@H]2[C@H]1[C@@H]1C/C(C)=C/CC[C@@](C)(O)[C@H]2O1` has an LD50 (Artemia) of 39.2 ppm.
Compound `CC(=O)O[C@]1(C)CC/C=C(\C)C[C@@H]2O[C@H]1[C@H]1[C@@H]2C(C)=CC[C@@H]1C(C)C` has an EC50 (SK-MEL-2) of 11.6 µg/mL (≈ 33.5 µM), an EC50 (HCT-15) of 13.9 µg/mL (≈ 40.1 µM) and an EC50 (SK-OV-3) of 21.3 µg/mL (≈ 61.5 µM). The LD50 (Artemia) was 0.3 ppm and the EC50 (A549) was 12.7 µg/mL (≈ 36.7 µM).
`CC1=C[C@@H](O)[C@H](C(C)(C)O)[C@@H]2[C@H]1[C@@H]1C/C(C)=C/CC[C@@](C)(O)[C@H]2O1` was tested, and the LD50 (Artemia) was 48 ppm.
In the case of `C=C1C[C@@H]2O[C@@H]([C@H]3[C@@H]2C(C)=C[C@@H](OC(C)=O)[C@@H]3C(C)(C)OC(C)=O)[C@](C)(OC(C)=O)CC[C@@H]1OC(C)=O` [ASTROGORGIN], the LD50 (Artemia) is reported as 1.8 ppm.
Compound `CC(=O)O[C@@H]1C=C(C)[C@H]2[C@@H]([C@H]1C(C)C)[C@@H]1O[C@H]2C/C(C)=C/CC[C@@]1(C)OC(C)=O` [CALICOPHIRIN B] has an LD50 (Artemia) of 1 ppm.
`C=C1CC[C@H](C(C)C)[C@@H]2[C@H]1[C@@H]1C/C(C)=C/CC[C@@](C)(OC(C)=O)[C@H]2O1` [CLADIELLIN] showed an LD50 (Artemia) of 1.3 ppm.
In the case of `CC(=O)O[C@@H]1C=C(C)[C@H]2[C@@H]([C@H]1C(C)(C)OC(C)=O)[C@@H]1O[C@H]2C/C(C)=C/CC[C@@]1(C)OC(C)=O` [OPHIRIN], the LD50 (Artemia) is reported as 8.7 ppm.

— ChEMBL document CHEMBL1146392, “Isolation of Diterpenoids of the Cladiellane Class from Gorgonians of the Genus Muricella” (J Nat Prod, 1997)
